In ChEMBL document CHEMBL6114960, “Discovery of First-in-Class FXR and HSD17B13 Dual Modulator for the Treatment of Metabolic Dysfunction-Associated Fatty Liver Disease” (J Med Chem, 2025):

Experiments:
[1] = biological target: T1, Bile acid receptor (Homo sapiens, UniProt Q96RI1); assay: Agonist activity at FXR-LBD (unknown origin) incubated for 3 hrs in presence of fluorescein-coactivator peptide by TR-FRET analysis
T1 sequence (Q96RI1 whole entry): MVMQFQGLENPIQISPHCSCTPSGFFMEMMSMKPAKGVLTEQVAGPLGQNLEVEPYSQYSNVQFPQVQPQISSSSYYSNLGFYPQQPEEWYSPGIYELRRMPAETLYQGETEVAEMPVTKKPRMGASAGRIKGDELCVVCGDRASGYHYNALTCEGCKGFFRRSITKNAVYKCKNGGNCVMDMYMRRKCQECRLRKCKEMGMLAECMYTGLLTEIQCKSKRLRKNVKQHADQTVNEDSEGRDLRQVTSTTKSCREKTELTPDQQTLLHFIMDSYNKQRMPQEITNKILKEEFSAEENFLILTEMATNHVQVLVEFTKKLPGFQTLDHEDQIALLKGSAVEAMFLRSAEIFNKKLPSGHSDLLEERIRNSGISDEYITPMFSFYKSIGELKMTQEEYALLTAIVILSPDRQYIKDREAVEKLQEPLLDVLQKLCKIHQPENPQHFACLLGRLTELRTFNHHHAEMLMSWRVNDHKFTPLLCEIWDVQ

[2] = biological target: T1, Bile acid receptor; assay: Agonist activity at FXR (unknown origin) transfected in human HepG2 cells incubated for 24 hrs by luciferase assay; type: cell-based
[3] = biological target: T2, 17-beta-hydroxysteroid dehydrogenase 13 (Homo sapiens, UniProt Q7Z5P4)
T2 sequence (Q7Z5P4 whole entry): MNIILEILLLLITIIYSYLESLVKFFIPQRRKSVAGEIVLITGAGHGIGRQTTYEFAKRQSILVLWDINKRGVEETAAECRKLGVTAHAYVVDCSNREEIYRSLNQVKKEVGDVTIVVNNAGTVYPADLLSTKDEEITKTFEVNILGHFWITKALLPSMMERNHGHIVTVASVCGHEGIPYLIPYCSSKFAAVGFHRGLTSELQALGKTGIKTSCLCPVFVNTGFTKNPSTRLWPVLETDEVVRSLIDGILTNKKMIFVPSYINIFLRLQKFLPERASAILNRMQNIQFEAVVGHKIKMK
Description: Inhibition of HSD17B13 (unknown origin) using beta-estradiol and FAC-NAD+ as substrate incubated for 2 hrs by NAD(P)H-Glo detection reagent based luminescence assay

[4] = biological target: T1, Bile acid receptor; assay: Agonist activity at FXR (unknown origin)
[5] = tested on: Mus musculus; assay: Anti-MASH activity in western diet and CCl4 co-induced male C57BL/6 mouse model assessed as NAFLD activity score at 20 mg/kg, po administered with high fat diet and sugar water for 12 weeks with subsequent CCl4 administration three times a week and measured after 4 weeks of compound administration via gavage starting from 9th week (Rvb > 6); type: functional

SMILES	EC50 [1]	EC50 [2]	also measured
CC(C)NC(=O)c1ccc(-c2ccc(OCc3c(-c4c(Cl)cccc4Cl)noc3C3CC3)cc2)cc1	0.974 µM	–	–
Cc1cc(OCc2c(-c3c(Cl)cccc3Cl)noc2C2CC2)ccc1-c1ccc(C(=O)O)cc1	0.134 µM	0.301 µM	–
CN(C)C(=O)c1ccc(-c2ccc(OCc3c(-c4c(Cl)cccc4Cl)noc3C3CC3)cc2)cc1	0.482 µM	–	–
O=C(O)c1cccc2nc(-c3ccc(OCc4c(-c5c(Cl)cccc5Cl)noc4C4CC4)cc3)cn12	0.121 µM	0.186 µM	IC50 [3]: 0.85 µM
O=C(O)c1ccc(-c2ccc(OCc3c(-c4c(Cl)cccc4Cl)noc3C3CC3)cc2)nc1	0.129 µM	0.329 µM	–
O=C(O)c1ccc(-c2ccc(OCc3c(-c4c(Cl)cccc4Cl)noc3C3CC3)c(F)c2)cc1	0.143 µM	0.475 µM	–
CN(C)C(=O)c1cccc(-c2ccc(OCc3c(-c4c(Cl)cccc4Cl)noc3C3CC3)cc2)c1	0.209 µM	0.493 µM	–
CC(C)c1onc(-c2ccccc2C(F)(F)F)c1COc1ccc(-c2ccc(C(=O)O)cc2)cc1	0.232 µM	0.525 µM	–
O=C(O)c1ccc(-c2ccc(OCc3c(-c4c(Cl)cccc4Cl)noc3C3CC3)cc2)cc1Cl	0.193 µM	0.239 µM	–
O=C(O)C1=CC2NC(c3ccc(OCc4c(-c5c(Cl)cccc5Cl)noc4C4CC4)cc3)=NC2C=C1 (stereo unspecified)	–	–	IC50 [3]: 4.35 µM
O=C(NCC1CC1)c1cccc(-c2ccc(OCc3c(-c4c(Cl)cccc4Cl)noc3C3CC3)cc2)c1	> 10 µM	–	–
CC(C)(C)NC(=O)c1cccc(-c2ccc(OCc3c(-c4c(Cl)cccc4Cl)noc3C3CC3)cc2)c1	> 10 µM	–	–
O=C(O)c1c(F)cc(-c2ccc(OCc3c(-c4c(Cl)cccc4Cl)noc3C3CC3)cc2)cc1F	0.531 µM	–	–
O=C(O)c1ccc(-c2ccc(OCc3c(-c4c(Cl)cccc4Cl)noc3C3CC3)cc2)c(C(F)(F)F)c1	0.119 µM	0.288 µM	–
CNC(=O)c1ccc(-c2ccc(OCc3c(-c4c(Cl)cccc4Cl)noc3C3CC3)cc2)cc1	0.146 µM	0.288 µM	–
O=C(O)c1ccc(-c2ccc(OCc3c(-c4c(Cl)cccc4Cl)noc3C3CC3)cc2)s1	0.271 µM	0.491 µM	–
OCC1(c2cccc(-c3ccc(OCc4c(-c5c(Cl)cccc5Cl)noc4C4CC4)cc3)c2)CC1	> 10 µM	–	–
O=C(O)c1ccc(-c2ccc(OCc3c(-c4c(Cl)cccc4Cl)noc3C3CC3)cc2)c(F)c1	0.114 µM	0.282 µM	–
NC(=O)c1ccc(-c2ccc(OCc3c(-c4c(Cl)cccc4Cl)noc3C3CC3)cc2)cc1	0.145 µM	0.372 µM	–
O=C(c1cccc(-c2ccc(OCc3c(-c4c(Cl)cccc4Cl)noc3C3CC3)cc2)c1)N1CCOCC1	> 10 µM	–	–
Cc1cc(OCc2c(-c3c(Cl)cccc3Cl)noc2C2CC2)cc(C)c1-c1ccc(C(=O)O)cc1	0.085 µM	0.261 µM	–
O=C(O)c1ccc(-c2ccc(OCc3c(-c4c(Cl)cccc4Cl)noc3C3CC3)cn2)cc1	0.697 µM	–	–
O=C(NC1CC1)c1cccc(-c2ccc(OCc3c(-c4c(Cl)cccc4Cl)noc3C3CC3)cc2)c1	0.579 µM	–	–
OCCOc1ccc(-c2ccc(OCc3c(-c4c(Cl)cccc4Cl)noc3C3CC3)cc2)cc1	> 10 µM	–	–
O=C(O)c1ccnc(N2CC(O)(c3ccc(OCc4c(-c5c(Cl)cccc5Cl)noc4C4CC4)cc3Cl)C2)c1 [CILOFEXOR]	–	–	EC50 [4]: 0.058 µM
CC[C@H]1[C@@H](O)[C@@H]2[C@H](CC[C@]3(C)[C@@H]([C@H](C)CCC(=O)O)CC[C@@H]23)[C@@]2(C)CC[C@@H](O)C[C@@H]12 [OBETICHOLIC ACID]	–	–	Activity [5]: 3.5; IC50 [3]: > 10 µM
